Assay results: article PMC4399838, “Antipsychotic-Like Effect of the Muscarinic Acetylcholine Receptor Agonist BuTAC in Non-Human Primates” (PLoS ONE, 2015)

Legend:
[1] = target: T1, human M1 muscarinic receptor (Homo sapiens, UniProt P11229); assay: GTP-γ-[35S] binding, antibody capture SPA (agonist and antagonist mode); format: biochemical
T1 construct: purchased PerkinElmer Life and Analytical Sciences, Boston, MA
T1 sequence (P11229 1-460): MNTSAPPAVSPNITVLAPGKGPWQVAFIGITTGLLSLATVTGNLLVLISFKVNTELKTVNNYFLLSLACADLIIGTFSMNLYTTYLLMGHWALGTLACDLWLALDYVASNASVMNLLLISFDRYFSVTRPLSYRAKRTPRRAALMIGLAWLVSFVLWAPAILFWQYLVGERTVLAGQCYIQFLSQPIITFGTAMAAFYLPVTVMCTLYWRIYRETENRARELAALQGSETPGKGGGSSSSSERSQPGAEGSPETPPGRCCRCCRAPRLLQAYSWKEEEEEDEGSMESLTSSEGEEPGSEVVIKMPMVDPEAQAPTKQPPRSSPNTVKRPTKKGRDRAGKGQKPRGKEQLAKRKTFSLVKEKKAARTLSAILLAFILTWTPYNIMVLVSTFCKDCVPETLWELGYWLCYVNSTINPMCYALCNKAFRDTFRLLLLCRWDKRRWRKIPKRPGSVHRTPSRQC
Protocol: (§1) The antibody capture scintillation proximity technique previously described by DeLapp et al was used in a 96-well plate to determine GTP-γ-[35S] binding. One hundred μl (20–40 fmol/well) of membrane preparation from CHO cells that stably express the human M1-M5 muscarinic receptors (PerkinElmer Life and Analytical Sciences, Boston, MA) were incubated with varying concentration of test compound (final concentrations from 50pM to 1μM) for 30 min. One μM final concentration of GDP was added to M2 and M4 receptor membranes before incubation. […] (500 pM final concentration; Perkin Elmer Life and Analytical Sciences) was added to each well followed by 30 min of incubation. […] An anti-Gαq/11 antibody was used for the M1-, M3-, and M5 membranes, whereas an anti-Gαi-3 antibody was used for the M2- and M4 membranes (Eli Lilly and Company, Indianapolis, IN). […] By use of a Wallac MicroBeta TriLux scintillation counter (PerkinElmer), the plates were centrifuged for 10 min at 700 × g and counted for 1 min per well. The incubations took place at room temperature in GTP-binding assay buffer (20 mM Hepes, 100 mm NaCl, 5 mM MgC12, pH 7.4). The data were analyzed by use of nonlinear regression for a sigmoidal concentration response curve (GraphPad Prism v. 4.0). Data were normalized to a full agonist response (100 μM oxotremorine-M). […] The antagonist percent inhibition data were normalized to data generated with an EC90 concentration of acetylcholine. The mean relative EC50, IC50, and %Emax, and pKi values were calculated as a mean of at least three independent experiments±SEM. In order to obtain relevant comparisons between subtypes, the experimental system is routinely calibrated with reference agonists (oxotremorine-M, pilocarpine, MCN-A343) to measure full and partial agonism as well as to ensure that the system is not under- or over-reporting functional efficacies. The radioligand binding assays have earlier been described.

[2] = target: T2, human M4 muscarinic receptor (Homo sapiens, UniProt P08173); assay: as above; format: biochemical
T2 construct: purchased PerkinElmer Life and Analytical Sciences, Boston, MA
T2 sequence (P08173 1-479): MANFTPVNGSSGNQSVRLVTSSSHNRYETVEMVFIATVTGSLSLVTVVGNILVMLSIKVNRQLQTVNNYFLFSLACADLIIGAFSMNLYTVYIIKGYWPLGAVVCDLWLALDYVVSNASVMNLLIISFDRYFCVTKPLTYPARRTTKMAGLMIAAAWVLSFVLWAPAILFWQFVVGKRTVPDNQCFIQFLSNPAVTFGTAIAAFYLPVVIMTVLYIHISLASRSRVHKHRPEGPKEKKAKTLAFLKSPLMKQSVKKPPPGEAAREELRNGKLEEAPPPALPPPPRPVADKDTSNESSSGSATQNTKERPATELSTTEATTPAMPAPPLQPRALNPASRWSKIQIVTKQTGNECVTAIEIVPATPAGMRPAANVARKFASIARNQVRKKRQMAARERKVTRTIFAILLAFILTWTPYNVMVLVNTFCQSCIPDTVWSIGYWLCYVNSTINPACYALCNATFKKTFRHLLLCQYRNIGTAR
Protocol: as §1

[3] = target: T3, human M5 muscarinic receptor (Homo sapiens, UniProt P08912); assay: as above; format: biochemical
T3 construct: purchased PerkinElmer Life and Analytical Sciences, Boston, MA
T3 sequence (P08912 1-532): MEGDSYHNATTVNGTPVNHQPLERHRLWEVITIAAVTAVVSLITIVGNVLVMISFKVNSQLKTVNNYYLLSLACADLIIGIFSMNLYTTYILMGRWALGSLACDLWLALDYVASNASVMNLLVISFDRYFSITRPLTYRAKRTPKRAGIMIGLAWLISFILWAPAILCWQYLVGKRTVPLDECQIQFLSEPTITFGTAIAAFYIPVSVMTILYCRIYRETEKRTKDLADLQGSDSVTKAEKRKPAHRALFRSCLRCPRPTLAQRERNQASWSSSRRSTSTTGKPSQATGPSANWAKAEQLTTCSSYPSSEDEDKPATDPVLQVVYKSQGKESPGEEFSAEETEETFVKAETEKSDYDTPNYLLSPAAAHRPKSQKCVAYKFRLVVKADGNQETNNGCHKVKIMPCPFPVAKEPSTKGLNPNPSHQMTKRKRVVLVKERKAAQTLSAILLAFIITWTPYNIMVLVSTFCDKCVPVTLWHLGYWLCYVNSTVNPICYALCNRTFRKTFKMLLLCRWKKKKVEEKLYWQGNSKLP
Protocol: as §1

M1AChR = target: T4, M1AChR (Homo sapiens, UniProt P11229); assay: Competitive radioligand binding
T4 sequence (P11229 1-460): T1 sequence (P11229 1-460)

M5AChR = target: T5, M5AChR (Homo sapiens, UniProt P08912); assay: Competitive radioligand binding
T5 sequence (P08912 1-532): T3 sequence (P08912 1-532)

[4] = antagonist mode, maximal inhibition of EC90 agonist response

For `CCCSc1nsnc1[C@H]1CN2CCC[C@H]1C2` [PTAC, (5R,6R) 6-(3-propylthio-1,2,5-thiadiazol-4-yl)-1-azabicyclo-[3.2.1]-octane], the EC50 [1] was 0.372 nM, the IC50 [1] was 0.933 nM and the “% Inhibition” value [1, 4] was 54.3 ± 1.70%. It also gave an Emax ([1]; percentage of maximum 100 μM oxotremorine-M signal) of 38.1 ± 9.94%, an EC50 [2] of 1.48 nM and an Emax [2] of 19.4 ± 0.52%. For the same compound, the IC50 [2] was 24.5 nM, the “% Inhibition” value [2, 4] was 92.7 ± 7.49% and the EC50 [3] was 15.5 nM. For the same compound, the Emax [3] was 15.4 ± 2.73%, the IC50 ([3]; antagonist mode against EC90 of agonist, negative log-transformed, read-out: Rel pIC50 (converted)) was 107 nM and the “% Inhibition” value [3, 4] was 87.3 ± 7.07%. It also gave a Ki (M1AChR) of 1.05 nM and a Ki (M5AChR) of 0.372 nM.
